From BindingDB's records for patent US10213407 (The Procter & Gamble, 2019)

These compounds were tested against T1, Carnitine monooxygenase oxygenase/reductase subunit (Escherichia coli (strain K12), UniProt P0ABR7+P76254) (assay: BCA Protein Assay).
T1 sequence (P0ABR7 whole entry): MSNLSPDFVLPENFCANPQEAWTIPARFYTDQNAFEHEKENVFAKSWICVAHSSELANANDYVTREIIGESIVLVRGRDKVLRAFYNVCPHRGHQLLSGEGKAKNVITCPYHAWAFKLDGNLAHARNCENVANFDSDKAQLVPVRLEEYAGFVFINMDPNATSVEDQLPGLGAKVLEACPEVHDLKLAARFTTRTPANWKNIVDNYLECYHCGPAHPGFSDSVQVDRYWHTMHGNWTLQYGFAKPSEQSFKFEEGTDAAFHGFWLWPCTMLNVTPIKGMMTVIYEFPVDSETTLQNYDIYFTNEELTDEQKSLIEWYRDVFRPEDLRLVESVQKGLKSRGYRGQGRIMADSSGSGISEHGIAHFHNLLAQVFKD
T1 sequence (P76254 whole entry): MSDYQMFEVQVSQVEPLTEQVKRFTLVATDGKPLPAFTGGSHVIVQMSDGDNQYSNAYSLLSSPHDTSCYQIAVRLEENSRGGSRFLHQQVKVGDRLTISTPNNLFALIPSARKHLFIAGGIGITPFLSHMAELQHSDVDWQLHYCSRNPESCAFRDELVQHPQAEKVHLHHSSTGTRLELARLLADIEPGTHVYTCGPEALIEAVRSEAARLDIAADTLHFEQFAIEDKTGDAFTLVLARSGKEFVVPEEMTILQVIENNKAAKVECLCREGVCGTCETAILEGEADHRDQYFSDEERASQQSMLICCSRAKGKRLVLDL
Source text: Escherichia coli BL21*DE3 pET30a-Ec yeaWX #1 (Ec YeaWX) strain was generated as described below. The contiguous Escherichia coli coding sequence yeaW (equivalent to uniprot ID P0ABR7.1 (YeaW) (SEQ ID NO: 2)) and yeaX (equivalent to uniprot ID P76254.1 (YeaX) (SEQ ID NO: 3)) were PCR amplified from Escherichia coli strain K-12 substr. BW25113 genomic DNA. PCR primers (YeaW_Nde I_fwd2-SEQ ID NO: 4; YeaX_rev2-SEQ ID NO: 5) were designed to create a 5′ NdeI restriction site including the ATG start codon of yeaW and create a PstI restriction site just 3′ of the yeaX TAG stop codon.The bacteria were grown aerobically in 50 mL LB broth (Difco #244620; 10 g/L Tryptone, 5 g/L yeast extract, 10 g/L NaCl, 50 μg/mL kanamycin), in a 500 mL Erlenmeyer flask. The cultures were inoculated from glycerol stock of BL21*DE3 pET30a-Ec yeaWX #1 strain. Strains were cultured all day at 37° C. with 250 rpm shaking. Two 300 mL Minimal M9 Medium (6 g/L Na2HPO4, 3 g/L KH2PO4, 0.5 g/L NaCl, 1 g/L NH4Cl, 0.1 mM CaCl2, 1 mM MgSO4, 0.2% Dextrose, 1 mg/L Thiamine, 50 μg/mL kanamycin), in 1 L Erlenmeyer flasks, were inoculated with 5 mL of the LB broth day culture and cultured overnight at 37° C. with 250 rpm shaking. The overnight cultures were used to inoculate twelve 1 L cultures of Minimal M9 media in 2.8 L fluted Erlenmeyer flasks to an OD 600 nm of 0.05 (typically approximately 28 mLs), which were grown at 37° C. with 250 rpm shaking until an OD600 of approximately 0.4 was reached. Expression of YeaWX was induced with 1 mM IPTG and the induced cultures were further grown overnight at 37° C. with 250 rpm shaking. The biomass was pelleted by centrifugation at 6000×g for 12 minutes at 4° C. The cell pellet was suspended in 240 mL of ice-cold 1× Phosphate Buffered Saline (Ca2+ and Mg2+ free). […] Glycerol was added to the centrifuged lysate supernatant at a final concentration of 15% A protein concentration of the centrifuged lysate supernatant was determined by a BCA Protein Assay Kit (Pierce #23225), typically in the 2.5 to 4.5 mg/ml range. […]
CCOC(=O)C[N+](C)(C)CCN=C=S [US10213407, ID 4] gave an IC50 of 300 µM.
For CCOC(=O)C[N+](CC)(CC)CCCN=C=S [US10213407, ID 3], the IC50 was 220 µM.
Work on C[N+](C)(CC#N)CCN=C=S [US10213407, ID 8] yielded an IC50 of 210 µM.
